From patent US10494375B2, “Antimicrobial compound” (priority 2016, dated 2019) come the findings set out here.

Values after ≈ are worked out from the molar mass of the structure shown. Read-outs that look alike come from different tables or passages of the source. Where a SMILES comes first, the peptide text is derived from it. Bridges are numbered along the chain shown (N, C = ends). [ ]: non-standard residue; d: D form. The star is where a group is joined. Ileψ(thiazoline)Cys = CC[C@H](C)[C@H](N)C1=N[C@H](C(=O)*)CS1; dOrn = NCCC[C@@H](N)C(=O)O Where only a bound is given, the exact number is not on record here.

One assay relates to E. faecium CCUG 37832. Nature of the assay: MIC determination by standardized microdilution test in Mueller-Hinton broth. The assay is classed as cell-based, Enterococcus faecium. How it is done:
(§1) MBL-AB01 was tested against a panel of Gram-negative and Gram-positive pathogens. MICs for all Gram-positive and Gram-negative bacterial strains were determined by standardized microdilution tests using Mueller-Hinton broth (Acumedia). Bacterial inoculums containing 5×10^5 CFU/ml were incubated for 19 h at 35° C. in the presence of different antibiotic concentrations according to Clinical and Laboratory Standards Institute protocols. The bacterial strains were obtained from the culture collections ATCC (American Type Culture Collection), NCTC (National Collection of Type Cultures) and CCUG (culture collection university of Göteborg Sweden).
Background: In broth dilution the organism is exposed to a series of concentrations in liquid medium.

The next assay relates to E. faecium CTC 492. The description is as above. The format is cell-based, Enterococcus faecium. How it is done:
as §1

The test system of the next assay is M. luteus, ATCC 9341. Described as above. The format is cell-based, Micrococcus luteus. The protocol:
as §1

For a further assay, the system named is S. aureus NCTC 6571. Described as above. The assay is classed as cell-based. The protocol:
as §1

For assay [1], the system named is S. aureus ATCC 43300 (MRSA). The description is as above. The format is cell-based. How it is done:
as §1

For a further assay, the system named is S. aureus ATCC 29213. Described as above. The format is cell-based. The protocol:
as §1

Assay [2] has as its system IMR90 Human Lung Fibroblast (ATCC CCL-186) cells. Nature of the assay: In vitro cytotoxicity, CellTiter-GLO 2.0 viability assay. The assay is classed as cell-based. Conditions: IMR-90, 24 hours exposure, viability relative to control wells. For orientation: In ATP-based viability assays light output follows the ATP content of the culture.
Procedure: Xantolipin was obtained from Shaghai Jiao Tong University, China.
IMR90 cells were grown in DMEM—low glucose (Sigma) supplemented with 2 mM L-Glutamine, 1% MEM NEAA (Sigma), 1 mM Sodium Pyruvate, 10 mM HEPES and 100 U/mL Pen-Strep. The cells were subcultured twice or thrice a week at ratios between 1:2 and 1:8, depending on confluency. […] The microplates with cell suspension were shaked at 1600 rpm with 2.5 mm amplitude (Bioshake) for 20 seconds after seeding. […] The microplates with the IMR90 cells were incubated at 37° C. with 5% CO2 atmosphere. […] The serial dilutions with the compounds were further diluted in cell culture medium and transferred to the assay wells, giving a total DMSO concentration in the assay wells of 0.6%. After exposure, the assay plates with the IMR90 cells were further incubated at 37° C. with 5% CO2 atmosphere for 24 hours. The viability of the cells after incubation was measured using the Promega CellTiter-GLO 2.0 viability assay.
Setting [3] is: footnote of Table 1: resistance profile of Enterococcus faecium CCUG37832, read-out: Mic.
[4] abbreviates: Enterococcus faecium, CTC492, E. faecium CTC 492, 19 h at 35° C., read-out: MIC.
Setting [5] is: Enterococcus faecium, CCUG37832, E. faecium CCUG 37832 (multiresistant, vanA-positive clinical isolate), 19 h at 35° C., read-out: MIC.
Setting [6] is: Micrococcus luteus, ATCC9341, M. luteus, ATCC 9341, 19 h at 35° C., read-out: MIC.
Setting [7] is: Staphylococcus aureus, NCTC6571, S. aureus NCTC 6571, 19 h at 35° C., read-out: MIC.
The mark [8] stands for this setting: Staphylococcus aureus, S. aureus ATCC 43300 (MRSA), 19 h at 35° C., read-out: MIC.
The mark [9] stands for this setting: Staphylococcus aureus, ATCC29213, S. aureus ATCC 29213, 19 h at 35° C., read-out: MIC.

As to `CC1(C)S[C@@H]2[C@H](NC(=O)[C@H](N)c3ccccc3)C(=O)N2[C@H]1C(=O)O` [Ampicillin], in the assay on E. faecium CCUG 37832 (setting [3]), the MIC is 20 µg/mL (≈ 57.2 µM).
Regarding `CN[C@@H]1[C@@H](O[C@H]2O[C@H](CO)[C@@H](N)[C@H](O)[C@H]2O)OC2C[C@@H](N)[C@@H](O[C@H]3[C@H](O)[C@@H](O)[C@H](N)C[C@@H]3N)OC2[C@@H]1O` (stereo partly shown) [Apramycin], the minimum inhibitory concentration (MIC) in the assay on E. faecium CCUG 37832 (setting [3]) is above 20 µg/mL.
The same measure, in the same setting: the same measure for `CC[C@H](C)[C@H](N)C1=N[C@H](C(=O)N[C@@H](CC(C)C)C(=O)N[C@H](CCC(=O)O)C(=O)N[C@H](C(=O)N[C@H]2CCCCNC(=O)[C@H](CC(N)=O)NC(=O)[C@@H](CC(=O)O)NC(=O)[C@H](Cc3cnc[nH]3)NC(=O)[C@@H](Cc3ccccc3)NC(=O)[C@H]([C@@H](C)CC)NC(=O)[C@@H](CCCN)NC2=O)[C@@H](C)CC)CS1` [Bacitracin] ({Ileψ(thiazoline)Cys}-L[dE]IK[dOrn]I[dF]H[dD]N; lactam 4-C): above 8 µg/mL; for `CN(C)[C@@H]1C(O)=C(C(N)=O)C(=O)[C@@]2(O)C(O)=C3C(=O)c4c(O)ccc(Cl)c4[C@@](C)(O)[C@H]3C[C@@H]12` [Chlortetracycline]: above 10 µg/mL.
On the same count and under the same terms, the same measure for `N[C@@H]1CON=C1O` [Cycloserine]: above 8 µg/mL.
As to `CCCCCCCCCC(=O)N[C@@H](Cc1c[nH]c2ccccc12)C(=O)N[C@H](CC(N)=O)C(=O)N[C@@H](CC(=O)O)C(=O)N[C@@H]1C(=O)NCC(=O)N[C@@H](CCCN)C(=O)N[C@@H](CC(=O)O)C(=O)N[C@H](C)C(=O)N[C@@H](CC(=O)O)C(=O)NCC(=O)N[C@H](CO)C(=O)N[C@@H]([C@H](C)CC(=O)O)C(=O)N[C@@H](CC(=O)c2ccccc2N)C(=O)O[C@@H]1C` [Daptomycin], the minimum inhibitory concentration (MIC) was above 16 µg/mL in the assay on E. faecium CTC 492 (setting [4]); above 16 µg/mL with E. faecium CCUG 37832 (setting [5]); 0.5 µg/mL (≈ 0.309 µM) in the assay on M. luteus, ATCC 9341 (setting [6]); 4 µg/mL (≈ 2.47 µM) in the assay on S. aureus NCTC 6571 (setting [7]); 4 µg/mL (≈ 2.47 µM) in assay [1] (setting [8]); 4 µg/mL (≈ 2.47 µM) with S. aureus ATCC 29213 (setting [9]).
`CCC[C@@H]1C[C@@H](C(=O)N[C@@H]([C@H]2O[C@H](SC)[C@H](O)[C@@H](O)[C@H]2O)[C@@H](C)O)N(C)C1` [Lincomycin]: the MIC with E. faecium CCUG 37832 (setting [3]) was above 10 µg/mL.
Take `CN[C@@H]1[C@H](O)[C@H](NC)[C@H]2O[C@@]3(O)C(=O)C[C@@H](C)O[C@H]3O[C@@H]2[C@H]1O` [Spectinomycin]: in the assay on E. faecium CCUG 37832 (setting [3]), the minimum inhibitory concentration (MIC) was above 8 µg/mL.
As to `[H]/N=C(/N)N[C@H]1[C@H](O)[C@@H](O)[C@H](O[C@@H]2O[C@@H](C)[C@](O)(C=O)[C@H]2O[C@@H]2O[C@@H](CO)[C@H](O)[C@@H](O)[C@@H]2NC)[C@@H](N/C(N)=N\[H])[C@@H]1O` [Streptomycin], the MIC in the assay on E. faecium CTC 492 (setting [4]) is above 16 µg/mL; in the assay on E. faecium CCUG 37832 (setting [5]), above 16 µg/mL; with M. luteus, ATCC 9341 (setting [6]) it was 8 µg/mL (≈ 13.8 µM); in the assay on S. aureus NCTC 6571 (setting [7]) it was 16 µg/mL (≈ 27.5 µM); in assay [1] (setting [8]) it was 16 µg/mL (≈ 27.5 µM); in the assay with S. aureus ATCC 29213 (setting [9]), 16 µg/mL (≈ 27.5 µM).
As to `CN[C@H](CC(C)C)C(=O)N[C@H]1C(=O)N[C@@H](CC(N)=O)C(=O)N[C@H]2C(=O)N[C@H]3C(=O)N[C@H](C(=O)N[C@H](C(=O)O)c4cc(O)cc(O)c4-c4cc3ccc4O)[C@H](O)c3ccc(c(Cl)c3)Oc3cc2cc(c3O[C@@H]2O[C@H](CO)[C@@H](O)[C@H](O)[C@H]2O[C@H]2C[C@](C)(N)[C@H](O)[C@H](C)O2)Oc2ccc(cc2Cl)[C@H]1O` [Vancomycin], the MIC was 1 µg/mL (≈ 0.69 µM) in the assay with E. faecium CTC 492 (Enterococcus faecium, CTC492, 19 h); above 20 µg/mL in the assay on E. faecium CCUG 37832 (Enterococcus faecium, CCUG37832); above 16 µg/mL in the assay with E. faecium CCUG 37832 (Enterococcus faecium, CCUG37832, 19 h); 1 µg/mL (≈ 0.69 µM) against M. luteus, ATCC 9341 (Micrococcus luteus, ATCC9341, 19 h); 2 µg/mL (≈ 1.38 µM) against S. aureus NCTC 6571 (Staphylococcus aureus, NCTC6571, 19 h); 2 µg/mL (≈ 1.38 µM) in assay [1] (Staphylococcus aureus, 19 h). Further, the MIC in the assay on S. aureus ATCC 29213 (Staphylococcus aureus, ATCC29213, 19 h) came to 2 µg/mL (≈ 1.38 µM).
In assay [2], `COc1c(Cl)ccc2c(=O)c3c(O)c4c5c(c3oc12)OCO[C@@H]5C[C@@H]1C(=O)c2cc(C)[nH]c(=O)c2C(=O)[C@]41O` [Xantholipin] yielded an EC50 of 1 µg/mL (≈ 1.81 µM).
Turning to `CC[C@H]1OC(=O)[C@H](C)[C@@H](O[C@H]2C[C@@](C)(OC)[C@@H](O)[C@H](C)O2)[C@H](C)[C@@H](O[C@@H]2O[C@H](C)C[C@H](N(C)C)[C@H]2O)[C@](C)(O)C[C@@H](C)C(=O)[C@H](C)[C@@H](O)[C@]1(C)O` [erythromycin], the MIC in the assay on E. faecium CCUG 37832 (setting [3]) was above 20 µg/mL.
Consider Gentamicin, for which the minimal inhibitory concentration (MIC) against E. faecium CTC 492 (E. faecium CTC 492, 19 h at 35° C.) worked out at 16 µg/mL; in the assay with E. faecium CCUG 37832 (E. faecium CCUG 37832 (multiresistant, vanA-positive clinical isolate), 19 h at 35° C.) it was 16 µg/mL; with M. luteus, ATCC 9341 (M. luteus, ATCC 9341, 19 h at 35° C.), 4 µg/mL; against S. aureus NCTC 6571 (S. aureus NCTC 6571, 19 h at 35° C.), 4 µg/mL; in assay [1] (S. aureus ATCC 43300 (MRSA), 19 h at 35° C.), 16 µg/mL; against S. aureus ATCC 29213 (S. aureus ATCC 29213, 19 h at 35° C.) it was 4 µg/mL.

One may read the MIC as the least concentration at which growth counts as inhibited. One may read the EC50 as the midpoint of the concentration-response curve. A low value points to greater potency.
